Assay results reported in US12173007B2, “Imidazopyridazine IL-17 inhibitor compounds” (Janssen Pharmaceutica NV, priority 2021, dated 2024).

These molecules were tested on IL-17A-induced G-CSF production in human normal keratinocyte (NHK) (assay: NHK assay: IL-17A-induced G-CSF production in normal human keratinocytes). Settings: Homo sapiens, Keratinocyte, 24 h, IL-17A 5 ng/mL, G-CSF by HTRF, average if tested more than once.
Type: cell-based
Method: IL-17A acts directly on keratinocytes through binding to dimeric receptor IL-17RA/RC and drives the production of a number of inflammatory mediators known to be elevated in psoriasis lesional tissue. IL-17A small molecule inhibitors that block the IL-17A to interact with IL-17R would inhibit the IL-17A signaling in its targeted cells such as keratinocytes. The compound functional activity is evaluated for its impact on IL-17A-induced G-CSF production in human normal keratinocyte (NHK).
Adult normal human keratinocytes are cultured in keratinocyte growth medium (Lonza) in a flask till reaching ˜90% confluence, then cells are transferred to a 384-well plate at density of 3000-4000 cell/well. Recombinant human IL-17A (Gibco PHC9174) is pre-incubated with titrated compound or DMSO for 1 h at rt then added to the cell culture plate. The final concentration of IL-17A is 5 ng/mL and DMSO is 0.2%, in the culture containing 5% FBS. Cells are cultured/treated for 24 h at 37° C. Supernatants are collected and G-CSF production is measured through HTRF technology using Human G-CSF Kit (CisBio). G-CSF concentration was extrapolated from the standard curve and IC50 is determined using GraphPad Prism. Cell viability is also evaluated using CellTiter-Glo kit (Promega) and effect of compound on cell viability is compared to DMSO control.

Molecule	IC50
COC[C@H](c1cnn2cc([C@@H](NC(=O)c3nonc3C3CC3)[C@H]3[C@@H]4CC(F)(F)C[C@@H]43)nc2c1)N1CC(F)(F)CNC1=O (relative stereo) [Example 51, 4-Cyclopropyl-N—((S*)-(7-((S)-1-(5,5-difluoro-2-oxotetrahydropyrimidin-1(2H)-yl)-2-methoxyethyl)imidazo[1,2-b]pyridazin-2-yl)((1R,5S,6r)-3,3-difluorobicyclo[3.1.0]hexan-6-yl)methyl)-1,2,5-oxadiazole-3-carboxamide]	< 50 nM
COC[C@H](c1cnn2cc([C@H](NC(=O)c3nonc3C3CC3)[C@@H]3CCC(F)(F)C3)nc2c1)N1CC(F)(F)CNC1=O (relative stereo) [Example 52, 4-Cyclopropyl-N—((R*)-(7-((S)-1-(5,5-difluoro-2-oxotetrahydropyrimidin-1(2H)-yl)-2-methoxyethyl)imidazo[1,2-b]pyridazin-2-yl)((R*)-3,3-difluorocyclopentyl)methyl)-1,2,5-oxadiazole-3-carboxamide]	< 50 nM
COC[C@H](c1cnn2cc([C@@H](NC(=O)c3nonc3C)[C@@H](C)OC(C)(C)C(F)(F)F)nc2c1)N1CC(F)(F)CNC1=O (relative stereo) [Example 60, N-((1R*,2R*)-1-(7-((S)-1-(5,5-Difluoro-2-oxotetrahydropyrimidin-1(2H)-yl)-2-methoxyethyl)imidazo[1,2-b]pyridazin-2-yl)-2-((1,1,1-trifluoro-2-methylpropan-2-yl)oxy)propyl)-4-methyl-1,2,5-oxadiazole-3-carboxamide]	< 50 nM
CCOCC(c1cnn2cc([C@@H](NC(=O)c3nonc3C)C3CCC(F)(F)CC3)nc2c1)N1CC(F)(F)CNC1=O (single isomer, unassigned) [Example 35, N—((S)-(7-((S*)-1-(5,5-Difluoro-2-oxotetrahydropyrimidin-1(2H)-yl)-2-ethoxyethyl)imidazo[1,2-b]pyridazin-2-yl)(4,4-difluorocyclohexyl)methyl)-4-methyl-1,2,5-oxadiazole-3-carboxamide]	< 50 nM
CCOCC(c1cnn2cc([C@@H](NC(=O)c3nonc3C3CC3)C3CCC(F)(F)CC3)nc2c1)N1CC(F)(F)CNC1=O (single isomer, unassigned) [Example 36, 4-Cyclopropyl-N—((S)-(7-((S*)-1-(5,5-difluoro-2-oxotetrahydropyrimidin-1(2H)-yl)-2-ethoxyethyl)imidazo[1,2-b]pyridazin-2-yl)(4,4-difluorocyclohexyl)methyl)-1,2,5-oxadiazole-3-carboxamide]	< 50 nM
COC[C@H](c1cnn2cc(C(CCC(C)(C)C(F)(F)F)NC(=O)c3nonc3C3CC3)nc2c1)N1CC(F)(F)CNC1=O (single isomer, unassigned) [Example 46, 4-Cyclopropyl-N—((S*)-1-(7-((S)-1-(5,5-difluoro-2-oxotetrahydropyrimidin-1(2H)-yl)-2-methoxyethyl)imidazo[1,2-b]pyridazin-2-yl)-5,5,5-trifluoro-4,4-dimethylpentyl)-1,2,5-oxadiazole-3-carboxamide]	< 50 nM
Cc1nonc1C(=O)N[C@H](c1cn2ncc([C@@H](C3CC3)N3CCC(C(F)(F)F)NC3=O)cc2n1)C1CCC(F)(F)CC1 (single isomer, unassigned) [Example 48, N—((S)-(7-((R)-Cyclopropyl((S*)-2-oxo-4-(trifluoromethyl)tetrahydropyrimidin-1(2H)-yl)methyl)imidazo[1,2-b]pyridazin-2-yl)(4,4-difluorocyclohexyl)methyl)-4-methyl-1,2,5-oxadiazole-3-carboxamide]	> 100 nM
Cc1nonc1C(=O)N[C@H](c1cn2ncc(C(COC3CCC3)N3CC(F)(F)CNC3=O)cc2n1)C1CCC(F)(F)CC1 (single isomer, unassigned) [Example 57, N—((S)-(7-((S*)-2-Cyclobutoxy-1-(5,5-difluoro-2-oxotetrahydropyrimidin-1(2H)-yl)ethyl)imidazo[1,2-b]pyridazin-2-yl)(4,4-difluorocyclohexyl)methyl)-4-methyl-1,2,5-oxadiazole-3-carboxamide]	< 50 nM
Cc1nonc1C(=O)N[C@H](c1cn2ncc(C(COC(C)C)N3CC(F)(F)CNC3=O)cc2n1)C1CCC(F)(F)CC1 (single isomer, unassigned) [Example 58, N—((S)-(7-((S*)-1-(5,5-Difluoro-2-oxotetrahydropyrimidin-1(2H)-yl)-2-isopropoxyethyl)imidazo[1,2-b]pyridazin-2-yl)(4,4-difluorocyclohexyl)methyl)-4-methyl-1,2,5-oxadiazole-3-carboxamide]	< 50 nM
CC(C)n1nccc1C(=O)N[C@H](c1cn2ncc([C@@H](COC3CC3)N3CC(F)(F)CNC3=O)cc2n1)C1CCC(F)(F)CC1 [Example 37, N—((S)-(7-((S)-2-Cyclopropoxy-1-(5,5-difluoro-2-oxotetrahydropyrimidin-1(2H)-yl)ethyl)imidazo[1,2-b]pyridazin-2-yl)(4,4-difluorocyclohexyl)methyl)-1-isopropyl-1H-pyrazole-5-carboxamide]	< 50 nM
Cc1nocc1C(=O)N[C@H](c1cn2ncc([C@@H](COC3CC3)N3CC(F)(F)CNC3=O)cc2n1)C1CCC(F)(F)CC1 [Example 38, N—((S)-(7-((S)-2-Cyclopropoxy-1-(5,5-difluoro-2-oxotetrahydropyrimidin-1(2H)-yl)ethyl)imidazo[1,2-b]pyridazin-2-yl)(4,4-difluorocyclohexyl)methyl)-3-methylisoxazole-4-carboxamide]	< 50 nM
COC[C@H](c1cnn2cc([C@H](CC(C)(C)C(F)(F)F)NC(=O)c3nonc3C3CC3)nc2c1)N1CC(F)(F)CNC1=O [Example 41, 4-Cyclopropyl-N—((S)-1-(7-((S)-1-(5,5-difluoro-2-oxotetrahydropyrimidin-1(2H)-yl)-2-methoxyethyl)imidazo[1,2-b]pyridazin-2-yl)-4,4,4-trifluoro-3,3-dimethylbutyl)-1,2,5-oxadiazole-3-carboxamide]	< 50 nM
COC[C@H](c1cnn2cc([C@@H](NC(=O)c3nonc3C3CC3)[C@@H](C)O[C@H](C)C(F)(F)F)nc2c1)N1CC(F)(F)CNC1=O [Example 42, 4-Cyclopropyl-N-((1R,2R)-1-(7-((S)-1-(5,5-difluoro-2-oxotetrahydropyrimidin-1(2H)-yl)-2-methoxyethyl)imidazo[1,2-b]pyridazin-2-yl)-2-(((R)-1,1,1-trifluoropropan-2-yl)oxy)propyl)-1,2,5-oxadiazole-3-carboxamide]	< 50 nM
COC[C@H](c1cnn2cc([C@@H](NC(=O)c3nonc3C3CC3)[C@@H](C)O[C@@H](C)C(F)(F)F)nc2c1)N1CC(F)(F)CNC1=O [Example 43, 4-Cyclopropyl-N-((1R,2R)-1-(7-((S)-1-(5,5-difluoro-2-oxotetrahydropyrimidin-1(2H)-yl)-2-methoxyethyl)imidazo[1,2-b]pyridazin-2-yl)-2-(((S)-1,1,1-trifluoropropan-2-yl)oxy)propyl)-1,2,5-oxadiazole-3-carboxamide]	< 50 nM
CC(C)(C[C@H](NC(=O)c1nonc1C1CC1)c1cn2ncc([C@@H](COC3CC3)N3CC(F)(F)CNC3=O)cc2n1)C(F)(F)F [Example 44, N—((S)-1-(7-((S)-2-Cyclopropoxy-1-(5,5-difluoro-2-oxotetrahydropyrimidin-1(2H)-yl)ethyl)imidazo[1,2-b]pyridazin-2-yl)-4,4,4-trifluoro-3,3-dimethylbutyl)-4-cyclopropyl-1,2,5-oxadiazole-3-carboxamide]	< 50 nM
Cc1nonc1C(=O)N[C@H](c1cn2ncc([C@@H](C3CC3)N3CCC4(CC4)NC3=O)cc2n1)C1CCC(F)(F)CC1 [Example 47, N—[(S)-[7-[(R)-Cyclopropyl-(7-oxo-6,8-diazaspiro[2.5]octan-6-yl)methyl]imidazo[1,2-b]pyridazin-2-yl]-(4,4-difluorocyclohexyl)methyl]-4-methyl-1,2,5-oxadiazole-3-carboxamide]	> 100 nM
Cc1nonc1C(=O)N[C@@H](CC(C)(C)C(F)(F)F)c1cn2ncc([C@@H](COC3CC3)N3CC(F)(F)CNC3=O)cc2n1 [Example 50, N—((S)-1-(7-((S)-2-Cyclopropoxy-1-(5,5-difluoro-2-oxotetrahydropyrimidin-1(2H)-yl)ethyl)imidazo[1,2-b]pyridazin-2-yl)-4,4,4-trifluoro-3,3-dimethylbutyl)-4-methyl-1,2,5-oxadiazole-3-carboxamide]	< 50 nM

Same assay, conditions: IL-17A 5 ng/mL, 24 h, G-CSF by HTRF; average if tested more than once

Molecule	IC50
4-Cyclopropyl-N—((R)-1-(7-((S)-1-(5,5-difluoro-2-oxotetrahydropyrimidin-1(2H)-yl-4,4,6,6-d4)-2-methoxyethyl)imidazo[1,2-b]pyridazin-2-yl)-2-((1,1,1-trifluoro-2-methylpropan-2-yl)oxy)ethyl)-1,2,5-oxadiazole-3-carboxamide [Example 39]	< 50 nM
Cc1nonc1C(=O)N[C@H](c1cn2ncc([C@@H](C3CC3)N3CCC(C(F)(F)F)NC3=O)cc2n1)C1CCC(F)(F)CC1 (single isomer, unassigned) [Example 49, N—((S)-(7-((R)-Cyclopropyl((R*)-2-oxo-4-(trifluoromethyl)tetrahydropyrimidin-1(2H)-yl)methyl)imidazo[1,2-b]pyridazin-2-yl)(4,4-difluorocyclohexyl)methyl)-4-methyl-1,2,5-oxadiazole-3-carboxamide]	> 100 nM
